Test results taken from patent publication US10039779B2, “Combination formulation of two antiviral compounds” (priority 2013, dated 2018).
Converted amounts (≈) assume the structure as drawn.

What was measured:
Format in all cases: physicochemical
[1] = pH-solubility profile and solubility in simulated intestinal media; conditions: for solubility at 48 h: thermodynamic from solid
Description: Excess solid ledipasvir was added to a range of pH-adjusted aqueous solutions (titrated with HCl or NaOH) and stirred for 48 hours at room temperature. The suspensions were then filtered through regenerated cellulose syringe filters. The pH value of the supernatant was measured, and the supernatant was diluted as appropriate with 50:50 H2O+0.1% TFA:ACN and assayed for ledipasvir content by the HPLC-UV method.
Solubility of ledipasvir amorphous free base was assessed in three types of simulated intestinal fluids at pH 6.5 or pH 5.0; and simulated intestinal bile salt and lecithin mixture (SIBLM), pH 6.4. Excess solid ledipasvir was added to the respective SIFs and stirred for 48 hours at room temperature. The resulting suspensions were then filtered through regenerated cellulose syringe filters. The supernatant was diluted as appropriate with 50:50 H2O+0.1% TFA:ACN and assayed for ledipasvir content by the HPLC-UV method.

[2] = Excipient and organic solvent solubility; conditions: thermodynamic from solid
Description: Solubility of ledipasvir amorphous free base and ledipasvir crystalline D-tartrate was measured in a wide range of pharmaceutically acceptable solvents, including cosolvents, surfactants, fatty acids, triglycerides, or blends thereof. Material was weighed into scintillation vials and stirred for up to 48 hours at room temperature. In many cases, solubility was higher than the amount of solid used in the sample, thus many results are reported as ‘greater than’ or ‘greater than or equal to’ if the concentration was not quantitatively determined by HPLC-UV.

[3] = Aqueous solubility with 0.1% w/w surfactants and polymers; dissolution behavior of forms; conditions: for solubility: thermodynamic from solid
Description: Excess solid was added to aqueous buffered solutions; samples were withdrawn at predetermined intervals (2, 5, 8, 10, 15, 20, 30, 45, 60 minutes, and 24 hours), filtered through regenerated cellulose filters, and diluted for concentration measurement by the HPLC-UV method.

COC(=O)N[C@H](C(=O)N1CC2(CC2)C[C@H]1c1ncc(-c2ccc3c(c2)C(F)(F)c2cc(-c4ccc5nc([C@@H]6[C@H]7CC[C@H](C7)N6C(=O)[C@@H](NC(=O)OC)C(C)C)[nH]c5c4)ccc2-3)[nH]1)C(C)C [Ledipasvir amorphous free base]
solubility ([1]; Aqueous, pH 1.6 (HCl), room temperature): 6855 µg/mL (≈ 7710 µM) | solubility ([1]; Aqueous, pH 2.3 (HCl), room temperature): 1096 µg/mL (≈ 1230 µM) | solubility at 48 h ([1]; FaSSIF, pH 6.5, fassif, FaSSIF pH = 6.5, room temperature): 25 µg/mL (≈ 28.1 µM) | solubility at 48 h ([1]; FeSSIF, pH 5, fessif, FeSSIF pH = 5.0, room temperature): 230 µg/mL (≈ 259 µM) | solubility at 48 h ([1]; SIBLM (simulated intestinal bile salt and lecithin mixture), pH 6.4, fassgf or other biorelevant, SIBLM pH = 6.4, room temperature): 232 µg/mL | intrinsic solubility (S0) ([1]; aqueous, neutral form (pH>5), room temperature): approximately 0.04 μg/mL | solubility at 48 h ([1]; pH-adjusted aqueous solution (HCl), pH 1.6, aqueous buffer, Aqueous, pH 1.6 (HCl), room temperature): ~7000 µg/mL (≈ 7870 µM) | solubility at 48 h ([1]; pH-adjusted aqueous solution (HCl), pH 2.3, aqueous buffer, Aqueous, pH 2.3 (HCl), room temperature): 1000 µg/mL (≈ 1120 µM) | solubility at 48 h ([1]; pH-adjusted aqueous solution, pH 3.1, aqueous buffer, Aqueous, pH 3.1 (HCl), room temperature): 13.2 µg/mL (≈ 14.8 µM) | solubility at 48 h ([1]; pH-adjusted aqueous solution, pH 4.1, aqueous buffer, Aqueous, pH 4.1 (HCl), room temperature): 0.11 µg/mL (≈ 0.124 µM) | solubility at 48 h ([1]; pH-adjusted aqueous solution, pH 5.5, aqueous buffer, Aqueous, pH 5.5 (HCl), room temperature): 0.03 µg/mL (≈ 0.0337 µM) | solubility at 48 h ([1]; pH-adjusted aqueous solution, pH 6.2, water, Aqueous, pH 6.2 (unaltered), room temperature): 0.03 µg/mL (≈ 0.0337 µM) | solubility at 48 h ([1]; pH-adjusted aqueous solution, pH 7.2, aqueous buffer, Aqueous, pH 7.2 (NaOH), room temperature): 0.01 µg/mL (≈ 0.0112 µM) | increase of solubility in SIBLM over FaSSIF ([1]; room temperature): approximately 10 fold | solubility ([2]; oil or lipid): > 500000 µg/mL | solubility ([2]; pH 2.5, aqueous with cosolvent or surfactant or cyclodextrin): 25000 µg/mL (≈ 28100 µM) | dissolution behavior relative to other ledipasvir forms ([3]; aqueous buffered solutions): faster than that of the crystalline free base and acetone solvate forms | solubility ([3]; aqueous citrate buffer with excipient, pH 2, aqueous with cosolvent or surfactant or cyclodextrin, 0.1% w/w PVP (povidone), pH 2): 5470 µg/mL (≈ 6150 µM) | solubility ([3]; aqueous citrate buffer with excipient, pH 2, aqueous with cosolvent or surfactant or cyclodextrin, 0.1% w/w PVP/VA (copovidone), pH 2): 6730 µg/mL (≈ 7570 µM) | solubility ([3]; aqueous citrate buffer with excipient, pH 2, aqueous with cosolvent or surfactant or cyclodextrin, 0.1% w/w Sodium lauryl sulfate, pH 2): 50 µg/mL (≈ 56.2 µM) | solubility ([3]; aqueous citrate buffer with excipient, pH 5, aqueous with cosolvent or surfactant or cyclodextrin, 0.1% w/w PVP (povidone), pH 5): 0.4 µg/mL (≈ 0.45 µM) | solubility ([3]; aqueous citrate buffer with excipient, pH 5, aqueous with cosolvent or surfactant or cyclodextrin, 0.1% w/w PVP/VA (copovidone), pH 5): 1 µg/mL (≈ 1.12 µM) | solubility ([3]; aqueous citrate buffer with excipient, pH 5, aqueous with cosolvent or surfactant or cyclodextrin, 0.1% w/w Sodium lauryl sulfate, pH 5): 243 µg/mL (≈ 273 µM) | solubility ([3]; aqueous citrate buffer, no excipient, pH 2, aqueous buffer, pH 2, room temperature): 4940 µg/mL (≈ 5560 µM) | solubility ([3]; aqueous citrate buffer, no excipient, pH 5, aqueous buffer, pH 5, room temperature): 0.1 µg/mL (≈ 0.112 µM) | solubility ([3]; pH 2, aqueous with cosolvent or surfactant or cyclodextrin, 0.1% w/w Cremaphor EL, pH 2): 9110 µg/mL (≈ 10200 µM) | solubility ([3]; pH 2, aqueous with cosolvent or surfactant or cyclodextrin, 0.1% w/w HPC (hydroxypropylcellulose), pH 2): 4670 µg/mL (≈ 5250 µM) | solubility ([3]; pH 2, aqueous with cosolvent or surfactant or cyclodextrin, 0.1% w/w HPMC (hydroxymethylcellulose), pH 2): 5270 µg/mL (≈ 5930 µM) | solubility ([3]; pH 2, aqueous with cosolvent or surfactant or cyclodextrin, 0.1% w/w Labrasol, pH 2): 7440 µg/mL (≈ 8370 µM) | solubility ([3]; pH 2, aqueous with cosolvent or surfactant or cyclodextrin, 0.1% w/w Poloxamer 188, pH 2): 7190 µg/mL (≈ 8090 µM) | solubility ([3]; pH 2, aqueous with cosolvent or surfactant or cyclodextrin, 0.1% w/w Polysorbate 80, pH 2): 9270 µg/mL (≈ 10400 µM) | solubility ([3]; pH 5, aqueous with cosolvent or surfactant or cyclodextrin, 0.1% w/w Cremaphor EL, pH 5): 69.9 µg/mL (≈ 78.6 µM) | solubility ([3]; pH 5, aqueous with cosolvent or surfactant or cyclodextrin, 0.1% w/w HPC (hydroxypropylcellulose), pH 5): 0.1 µg/mL (≈ 0.112 µM) | solubility ([3]; pH 5, aqueous with cosolvent or surfactant or cyclodextrin, 0.1% w/w HPMC (hydroxymethylcellulose), pH 5): 0.3 µg/mL (≈ 0.337 µM) | solubility ([3]; pH 5, aqueous with cosolvent or surfactant or cyclodextrin, 0.1% w/w Poloxamer 188, pH 5): 0.5 µg/mL (≈ 0.562 µM) | solubility ([3]; pH 5, aqueous with cosolvent or surfactant or cyclodextrin, 0.1% w/w Polysorbate 80, pH 5): 62.4 µg/mL (≈ 70.2 µM)
